What all share (experiment): AK assay 384-well format, Prestwick library screening
One experiment relates to E. faecium. It is filed as cell-based, Enterococcus faecium. The following applies: Enterococcus faecium, 3 h, 50 μM final drug concentration.
Experiment [1] has as its system S. aureus strain USA300-0114. It is filed as cell-based, Staphylococcus aureus. The following applies: Staphylococcus aureus, USA300, 3 h, 50 μM final drug concentration.
The next experiment deals with K. pneumoniae. It is filed as cell-based, Klebsiella pneumoniae. The following applies: Klebsiella pneumoniae, 3 h, 50 μM final drug concentration.
The subject of experiment [2] is A. baumannii strain 98-37-09. It is filed as cell-based, Acinetobacter baumannii. The following applies: Acinetobacter baumannii, 983709, 3 h, 50 μM final drug concentration.
A further experiment concerns P. aeruginosa. It is filed as cell-based, Pseudomonas aeruginosa. The following applies: Pseudomonas aeruginosa, 3 h, 50 μM final drug concentration.
In a further experiment the test system is E. cloacae. It is filed as cell-based, Enterobacter cloacae. The following applies: Enterobacter cloacae, 3 h, 50 μM final drug concentration.
For a further experiment, the system named is E. coli. It is filed as cell-based, Escherichia coli. The following applies: Escherichia coli, 3 h, 50 μM final drug concentration.

Structures can show the parent of a compound that is named as a salt. Where two headings read alike, the source gives them in different places.

Consider `c1cnc(N2CCN(Cc3ccc4c(c3)OCO4)CC2)nc1` [Piribedil hydrochloride], for which the fold induction at 50 µM with E. faecium (planktonic E. faecium, positive cutoff 3-fold increase, read-out: AK-based Prestwick library screening result, E. faecium (fold increase in extracellular AK activity)) was 0.9; in experiment [1] (planktonic S. aureus, positive cutoff 3-fold increase, read-out: AK-based Prestwick library screening result, S. aureus (fold increase in extracellular AK activity)), 0.6; in the experiment on K. pneumoniae (planktonic K. pneumoniae, positive cutoff 3-fold increase, read-out: AK-based Prestwick library screening result, K. pneumoniae (fold increase in extracellular AK activity)), 0.5; in experiment [2] (planktonic A. baumannii, positive cutoff 3-fold increase, read-out: AK-based Prestwick library screening result, A. baumannii (fold increase in extracellular AK activity)), 0.7; in the experiment with P. aeruginosa (planktonic P. aeruginosa, positive cutoff 3-fold increase, read-out: AK-based Prestwick library screening result, P. aeruginosa (fold increase in extracellular AK activity)), 0.6; with E. cloacae (planktonic E. cloacae, positive cutoff 3-fold increase, read-out: AK-based Prestwick library screening result, E. cloacae (fold increase in extracellular AK activity)), 1. Further, the fold induction at 50 µM with E. coli (planktonic E. coli, positive cutoff 3-fold increase, read-out: AK-based Prestwick library screening result, E. coli (fold increase in extracellular AK activity)) was 0.6.

For `CCn1cc(C(=O)O)c(=O)c2cnc(N3CCCC3)nc21` [Piromidic acid], the fold induction at 50 µM with E. faecium (planktonic, cutoff for positive-scoring molecules 3-fold increase, read-out: AK-based Prestwick Library Screening Results, E. faecium (fold increase in extracellular AK activity)) amounted to 0.9; in experiment [1] (planktonic, cutoff for positive-scoring molecules 3-fold increase, read-out: AK-based Prestwick Library Screening Results, S. aureus (fold increase in extracellular AK activity)), 0.7; in the experiment with K. pneumoniae (planktonic, cutoff for positive-scoring molecules 3-fold increase, read-out: AK-based Prestwick Library Screening Results, K. pneumoniae (fold increase in extracellular AK activity)), 0.6; in experiment [2] (planktonic, cutoff for positive-scoring molecules 3-fold increase, read-out: AK-based Prestwick Library Screening Results, A. baumannii (fold increase in extracellular AK activity)) it was 0.5; in the experiment on P. aeruginosa (planktonic, cutoff for positive-scoring molecules 3-fold increase, read-out: AK-based Prestwick Library Screening Results, P. aeruginosa (fold increase in extracellular AK activity)) it was 0.5; in the experiment on E. cloacae (planktonic, cutoff for positive-scoring molecules 3-fold increase, read-out: AK-based Prestwick Library Screening Results, E. cloacae (fold increase in extracellular AK activity)), 0.6. Besides, in the experiment with E. coli (planktonic, cutoff for positive-scoring molecules 3-fold increase, read-out: AK-based Prestwick Library Screening Results, E. coli (fold increase in extracellular AK activity)), the fold induction at 50 µM turned out to be 0.6.

In the case of `CN1C(C(=O)Nc2ccccn2)=C(O)c2ccccc2S1(=O)=O` [Piroxicam], the fold induction at 50 µM turned out to be 1.1 with E. faecium (planktonic E. faecium, 384-well, cutoff for positive-scoring molecules 3-fold increase, read-out: AK-based Prestwick Library Screening Results: E. faecium (increase in extracellular AK activity)); 1.4 in experiment [1] (planktonic S. aureus, 384-well, cutoff for positive-scoring molecules 3-fold increase, read-out: AK-based Prestwick Library Screening Results: S. aureus (increase in extracellular AK activity)); 1 in the experiment on K. pneumoniae (planktonic K. pneumoniae, 384-well, cutoff for positive-scoring molecules 3-fold increase, read-out: AK-based Prestwick Library Screening Results: K. pneumoniae (increase in extracellular AK activity)); 1 in experiment [2] (planktonic A. baumannii, 384-well, cutoff for positive-scoring molecules 3-fold increase, read-out: AK-based Prestwick Library Screening Results: A. baumannii (increase in extracellular AK activity)); 1.2 in the experiment with P. aeruginosa (planktonic P. aeruginosa, 384-well, cutoff for positive-scoring molecules 3-fold increase, read-out: AK-based Prestwick Library Screening Results: P. aeruginosa (increase in extracellular AK activity)); 1.4 with E. cloacae (planktonic E. cloacae, 384-well, cutoff for positive-scoring molecules 3-fold increase, read-out: AK-based Prestwick Library Screening Results: E. cloacae (increase in extracellular AK activity)). Further, in the experiment on E. coli (planktonic E. coli, 384-well, cutoff for positive-scoring molecules 3-fold increase, read-out: AK-based Prestwick Library Screening Results: E. coli (increase in extracellular AK activity)), the fold induction at 50 µM was 1.2.

Turning to `CC(C)(C)C(=O)OCOC(=O)[C@@H]1N2C(=O)[C@@H](NC(=O)[C@H](N)c3ccccc3)[C@H]2SC1(C)C` [Pivampicillin], the fold induction at 50 µM in the experiment on E. faecium (planktonic E. faecium, […], read-out: AK-based Prestwick library screening result, E. faecium (fold increase in extracellular AK activity)) worked out at 1.1; in experiment [1] (planktonic S. aureus, […], read-out: AK-based Prestwick library screening result, S. aureus (fold increase in extracellular AK activity)), 0.4; with K. pneumoniae (planktonic K. pneumoniae, […], read-out: AK-based Prestwick library screening result, K. pneumoniae (fold increase in extracellular AK activity)), 0.9; in experiment [2] (planktonic A. baumannii, […], read-out: AK-based Prestwick library screening result, A. baumannii (fold increase in extracellular AK activity)), 1.8; in the experiment on P. aeruginosa (planktonic P. aeruginosa, […], read-out: AK-based Prestwick library screening result, P. aeruginosa (fold increase in extracellular AK activity)), 0.9; in the experiment on E. cloacae (planktonic E. cloacae, […], read-out: AK-based Prestwick library screening result, E. cloacae (fold increase in extracellular AK activity)) it was 1.2. Besides, the fold induction at 50 µM in the experiment on E. coli (planktonic E. coli, […], read-out: AK-based Prestwick library screening result, E. coli (fold increase in extracellular AK activity)) is 1.5.

With `CC(C)(C)C(=O)OCOC(=O)[C@@H]1N2C(=O)[C@@H](/N=C/N3CCCCCC3)[C@H]2SC1(C)C` [Pivmecillinam hydrochloride], the fold induction at 50 µM with E. faecium (cutoff for positive-scoring molecules 3-fold increase, read-out: AK-based Prestwick Library Screening Results, E. faecium (fold increase in extracellular AK activity)) came to 0.9; in experiment [1] (cutoff for positive-scoring molecules 3-fold increase, read-out: AK-based Prestwick Library Screening Results, S. aureus (fold increase in extracellular AK activity)) it was 0.6; with K. pneumoniae (cutoff for positive-scoring molecules 3-fold increase, read-out: AK-based Prestwick Library Screening Results, K. pneumoniae (fold increase in extracellular AK activity)), 0.5; in experiment [2] (cutoff for positive-scoring molecules 3-fold increase, read-out: AK-based Prestwick Library Screening Results, A. baumannii (fold increase in extracellular AK activity)) it was 1.1; with P. aeruginosa (cutoff for positive-scoring molecules 3-fold increase, read-out: AK-based Prestwick Library Screening Results, P. aeruginosa (fold increase in extracellular AK activity)), 0.6; with E. cloacae (cutoff for positive-scoring molecules 3-fold increase, read-out: AK-based Prestwick Library Screening Results, E. cloacae (fold increase in extracellular AK activity)), 0.8. Also, the fold induction at 50 µM in the experiment on E. coli (cutoff for positive-scoring molecules 3-fold increase, read-out: AK-based Prestwick Library Screening Results, E. coli (fold increase in extracellular AK activity)) was 7.7.

As for `COc1cc([C@@H]2c3cc4c(cc3[C@H](O)[C@H]3COC(=O)[C@H]23)OCO4)cc(OC)c1OC` [Podophyllotoxin], the fold induction at 50 µM with E. faecium ([…], read-out: AK-based Prestwick Library Screening Results, E. faecium (fold increase in extracellular AK activity)) is 0.9; in experiment [1] ([…], read-out: AK-based Prestwick Library Screening Results, S. aureus (fold increase in extracellular AK activity)), 1; with K. pneumoniae ([…], read-out: AK-based Prestwick Library Screening Results, K. pneumoniae (fold increase in extracellular AK activity)) it was 1.2; in experiment [2] ([…], read-out: AK-based Prestwick Library Screening Results, A. baumannii (fold increase in extracellular AK activity)), 1.2; in the experiment on P. aeruginosa ([…], read-out: AK-based Prestwick Library Screening Results, P. aeruginosa (fold increase in extracellular AK activity)), 1.1; with E. cloacae ([…], read-out: AK-based Prestwick Library Screening Results, E. cloacae (fold increase in extracellular AK activity)), 1.3. In addition, the fold induction at 50 µM with E. coli ([…], read-out: AK-based Prestwick Library Screening Results, E. coli (fold increase in extracellular AK activity)) was 1.2.

For `CC(=O)Nc1ccc(OCC(O)CNC(C)C)cc1` (stereo not shown) [Practolol], the fold induction at 50 µM with E. faecium (planktonic E. faecium, cutoff for positive-scoring molecules 3-fold increase, read-out: AK-based Prestwick Library Screening Results, E. faecium (increase in extracellular AK activity)) was 0.9; in experiment [1] (planktonic S. aureus, cutoff for positive-scoring molecules 3-fold increase, read-out: AK-based Prestwick Library Screening Results, S. aureus (increase in extracellular AK activity)), 0.6; in the experiment with K. pneumoniae (planktonic K. pneumoniae, cutoff for positive-scoring molecules 3-fold increase, read-out: AK-based Prestwick Library Screening Results, K. pneumoniae (increase in extracellular AK activity)), 0.5; in experiment [2] (planktonic A. baumannii, cutoff for positive-scoring molecules 3-fold increase, read-out: AK-based Prestwick Library Screening Results, A. baumannii (increase in extracellular AK activity)) it was 0.7; in the experiment on P. aeruginosa (planktonic P. aeruginosa, cutoff for positive-scoring molecules 3-fold increase, read-out: AK-based Prestwick Library Screening Results, P. aeruginosa (increase in extracellular AK activity)) it was 0.6; in the experiment with E. cloacae (planktonic E. cloacae, cutoff for positive-scoring molecules 3-fold increase, read-out: AK-based Prestwick Library Screening Results, E. cloacae (increase in extracellular AK activity)), 0.8. The fold induction at 50 µM in the experiment with E. coli (planktonic E. coli, cutoff for positive-scoring molecules 3-fold increase, read-out: AK-based Prestwick Library Screening Results, E. coli (increase in extracellular AK activity)) was 0.7.

The values are drawn from patent US10004701B2, “Methods and compositions for treating infection” (UNIVERSITY OF ROCHESTER, priority 2012, dated 2018).
